Several values for one entry are separate records, joined by “and”; a condition that tells them apart may be missing. Identical values can stand only once.
How the values were obtained:
Assay type in all cases: in vivo, human
S100A12 and VCAN = S100A12 and VCAN gene expression in patients developing a differentiation syndrome; settings: patients developing a differentiation syndrome (Patients 01 and 09); within 98 and 168 h after the first dose
Method: (§1) An amount of 0.5 micrograms of the 1st strand product was used to perform qRT-PCR reactions in triplicate (Taqman® gene expression assay, Life technologies, see Table 3) in a Roche LightCycler®480. In order to analyze the changes in the expression levels of ANXA2, CAMSAP2, CD86, CRISP9, CTSG, GPR65, ITGAM, LY96, LYZ, S100A12, VCAN, and VIM, ΔΔCp values for a given patient and time point were calculated as described above, relative to the endogenous reference gene HPRT1 and to a control sample obtained from the same patient at pre-dose (i.e. prior to administration of the first dose of ORY-1001 to said patient).
For the analysis of the gene expression data, the time point (or time interval) showing the maximum response is typically selected. This time point/interval may change depending on the specific dose, administration scheme, etc. In the present study, all the gene expression and correlation analysis was performed by using the data obtained after administration of day 5, i.e. within the time interval between 98 and 168 h after the first dose. The maximum response observed within this time interval is referred to in the tables herein as “Maximum response (ΔΔCp) on day 5”. […]

ITGAM = assay: Gene expression by qRT-PCR in peripheral blood of acute leukemia patients; settings: individual patients, within 98 and 168 h after first dose, relative to HPRT1 and pre-dose, negative = up-regulation
Method: (§2) Plasma for pharmacokinetic determinations was separated by centrifugation. The remaining cell volume was resuspended in 2 mL PBS and an aliquot of […] was stabilized in a PAXgene® Blood RNA tube as described by the vendor and kept frozen for subsequent RNA extraction and qRT-PCR.
(§3) RNA extraction was performed using PAXgene® Blood RNA Kit (PreAnalytix) as described by the vendor. RNA quality was assessed using an Agilent 2100 Bioanalyzer™ and quantity was measured using a NanoDrop™ spectrophotometer.
(§4) An amount of 0.5 micrograms of total RNA was reverse transcribed to obtain 1st strand cDNA (iScript® Reverse Transcription Supermix for RTqPCR; Bio-Rad).
(§5) Gene expression was analyzed by qRT-PCR, a variant of the PCR (Polymerase Chain Reaction) method that permits the simultaneous exponential amplification and detection of specific cDNA fragments. Taqman gene expression assays were used, which employ the principle of doubly labeled hydrolysis probes marked with a fluorescent moiety at their 5′ end and with a quencher moiety at the 3′ end, which prevents the generation of fluorescence according to the Förster energy transfer principle.
(§6) In the exponential phase of the amplification reaction, the intensity of the fluorescence is directly proportional to the quantity of PCR product formed. The LightCycler® 480 Software determines the “crossing point” (Cp), i.e. the point where the reaction's fluorescence reaches the maximum of the second derivative of the amplification curve, which corresponds to the point where the acceleration of the fluorescence signal is at its maximum. The Cp values reflect the target mRNA concentration in the original RNA sample. Differences in Cp values (ΔCp) for a gene X of interest in a given sample relative to a control sample reflect changes in mRNA concentration of the gene X in a given amount of total RNA in the respective sample, and are calculated as:
(§7) ΔΔCp, gene X=[Cp(sample, gene X)−Cp(sample, reference gene)]−[Cp(control, gene X)−Cp(control, reference gene)]
(§8) The fold change in mRNA concentration is calculated as 2^−ΔΔCp, a negative ΔΔCp representing an increase in the expression level, and vice versa.
as §1
(§9) For the analysis of the gene expression data, the time point (or time interval) showing the maximum response is typically selected. This time point/interval may change depending on the specific dose, administration scheme, etc. In the present study, all the gene expression and correlation analysis was performed by using the data obtained after administration of day 5, i.e. within the time interval between 98 and 168 h after the first dose. The maximum response observed within this time interval is referred to in the tables herein as “Maximum response (ΔΔCp) on day 5”.

ANXA2 = assay: as above; settings: individual patients, within 98 and 168 h after first dose, relative to HPRT1 and pre-dose, negative = up-regulation
Method: as §2, §3, §4, §5, §6, §7, §8, §1, §9

VIM = assay: as above; settings: individual patients, within 98 and 168 h after first dose, relative to HPRT1 and pre-dose, negative = up-regulation
Method: as §2, §3, §4, §5, §6, §7, §8, §1, §9

Ly96 = assay: as above; settings: individual patients, within 98 and 168 h after first dose, relative to HPRT1 and pre-dose, negative = up-regulation
Method: as §2, §3, §4, §5, §6, §7, §8, §1, §9

LYZ = assay: as above; settings: individual patients, within 98 and 168 h after first dose, relative to HPRT1 and pre-dose, negative = up-regulation
Method: as §2, §3, §4, §5, §6, §7, §8, §1, §9

CTSG = assay: as above; settings: individual patients, within 98 and 168 h after first dose, relative to HPRT1 and pre-dose, negative = up-regulation
Method: as §2, §3, §4, §5, §6, §7, §8, §1, §9

CAMSAP2 = assay: as above; settings: individual patients, within 98 and 168 h after first dose, relative to HPRT1 and pre-dose, negative = up-regulation
Method: as §2, §3, §4, §5, §6, §7, §8, §1, §9

CD86 = assay: as above; settings: individual patients, within 98 and 168 h after first dose, relative to HPRT1 and pre-dose, negative = up-regulation
Method: as §2, §3, §4, §5, §6, §7, §8, §1, §9

VCAN = assay: as above; settings: individual patients, within 98 and 168 h after first dose, relative to HPRT1 and pre-dose, negative = up-regulation
Method: as §2, §3, §4, §5, §6, §7, §8, §1, §9

GPR65 [1] = assay: as above; settings: individual patients, within 98 and 168 h after first dose, relative to HPRT1 and pre-dose, negative = up-regulation
Method: as §2, §3, §4, §5, §6, §7, §8, §1, §9

S100A12 [2] = assay: as above; settings: individual patients, within 98 and 168 h after first dose, relative to HPRT1 and pre-dose, negative = up-regulation
Method: as §2, §3, §4, §5, §6, §7, §8, §1, §9

[3] = test system: S100A12, VCAN, ITGAM, LY96, ANXA2, CD86, GPR65, CRISP9, LYZ, and VIM; assay: Correlation of marker gene expression (qRT-PCR, peripheral blood) with response to ORY-1001; settings: day 5
Method: as §1, §9
Possible correlations between expression changes in marker genes described in table 5 and response to ORY-1001 treatment (see Table 2) were investigated.
The expression levels of Ly96 and ITGAM did additionally correlate with the variation of blast cells in bone marrow (see FIGS. 1A and 1B), particularly in M4/M5 subtypes, further supporting the utility of these marker genes in monitoring response to ORY-1001 treatment in easily accessible samples such as peripheral blood.

GPR65 [4] = assay: Gene expression by qRT-PCR in peripheral blood of acute leukemia patients; settings: individual patients
blast cells = assay: Clinical response: morphological blast differentiation and blast counts in smears of bone marrow aspirate and/or peripheral blood, Phase I extension cohort
Source text: As part of a Phase I clinical study assessing the human pharmacokinetics and safety of ORY-1001 in acute leukemia patients, an extension cohort of 14 patients (mean age 57; range 30-78, gender 8M/6F) was opened in order to provide a preliminary assessment of efficacy. A summary of the patients recruited in this extension cohort can be found in Table 1.
Preliminary clinical efficacy endpoints included (a) morphological blast differentiation and (b) decrease in blast %. In addition, gene expression determinations of selected markers were performed.
Each patient received ORY-1001 for oral intake as a solution at a dose of 140 microgram/m2/day (as free base) q.d., during 5 consecutive days with 2 days of rest, for 4 cycles (total of 28 days), or until disease progression or unacceptable toxicity was observed.
For the evaluation of the morphological blast differentiation and blast counts, smears of bone marrow aspirate and/or peripheral blood were prepared, stained by the May-Grünwald-Giemsa method, and microscopically examined in accordance with ICSH guidelines (ICSH guidelines for the standardization of bone marrow specimens and reports, Lee S H, Erber W N, Porwit A, Tomonaga M, Peterson L C; International Council for Standardization In Hematology, International journal of laboratory hematology 2008 October; 30(5):349-64).

S100A12 [5] = assay: Gene expression by qRT-PCR in peripheral blood of acute leukemia patients; settings: individual patients
[6] = patients showing both blast morphological differentiation and a decrease in blast cells, particularly M4/M5
[7] = patients showing no morphological differentiation and/or no effect or increase in blast cells
[8] = within 602 and 768 h after the first administration
[9] = within first 24 h after the first administration
[10] = peripheral blood and/or bone marrow, extension cohort of 14 patients, all four FAB subtypes

`N[C@H]1CC[C@H](N[C@@H]2C[C@H]2c2ccccc2)CC1` [ORY-1001, (trans)-N1-((1R,2S)-2-phenylcyclopropyl)cyclohexane-1,4-diamine] was tested, and the “S100A12 and VCAN exacerbated up-regulation (fold)” value (S100A12 and VCAN) was 18 to 550 fold, the “S100A12 and VCAN exacerbated up-regulation (ΔΔCp)” value (S100A12 and VCAN) was −4.2 to −9.1 ΔΔCp and the “Maximum response (ΔΔCp) on day 5, ITGAM” value (ITGAM) was 1.7 ΔΔCp and 1.6 ΔΔCp and 2.1 ΔΔCp and −2.3 ΔΔCp and 3.0 ΔΔCp and 3.1 ΔΔCp and −1.3 ΔΔCp and 3.2 ΔΔCp and −3.0 ΔΔCp and −3.7 ΔΔCp and −2.8 ΔΔCp and 1.8 ΔΔCp. For the same molecule, the “Maximum response (ΔΔCp) on day 5, ANXA2” value (ANXA2) was 2.0 ΔΔCp and −1.1 ΔΔCp and −2.6 ΔΔCp and 1.9 ΔΔCp and −1.9 ΔΔCp and −2.0 ΔΔCp and −3.8 ΔΔCp and −1.6 ΔΔCp and −1.4 ΔΔCp and 3.2 ΔΔCp, the “Maximum response (ΔΔCp) on day 5, VIM” value (VIM) was −1.2 ΔΔCp and −1.3 ΔΔCp and −0.5 ΔΔCp and 2.2 ΔΔCp and 1.7 ΔΔCp and −2.4 ΔΔCp and −3.4 ΔΔCp and −2.2 ΔΔCp and −0.4 ΔΔCp and 1.3 ΔΔCp and −0.6 ΔΔCp and the “Maximum response (ΔΔCp) on day 5, Ly96” value (Ly96) was −1.6 ΔΔCp and −2.9 ΔΔCp and 2.3 ΔΔCp and −3.3 ΔΔCp and 3.0 ΔΔCp and −4.3 ΔΔCp and −3.1 ΔΔCp and −4.8 ΔΔCp and 2.4 ΔΔCp and −3.2 ΔΔCp and −5.1 ΔΔCp and −4.1 ΔΔCp and −1.5 ΔΔCp. The “Maximum response (ΔΔCp) on day 5, LYZ” value (LYZ) was 2.9 ΔΔCp and 3.2 ΔΔCp and −1.2 ΔΔCp and 1.7 ΔΔCp and −2.3 ΔΔCp and 2.5 ΔΔCp and −2.2 ΔΔCp and −3.9 ΔΔCp and −0.6 ΔΔCp and 2.4 ΔΔCp and 1.2 ΔΔCp, the “Maximum response (ΔΔCp) on day 5, CTSG” value (CTSG) was 2.3 ΔΔCp and 3.9 ΔΔCp and 3.3 ΔΔCp and 1.8 ΔΔCp and 2.2 ΔΔCp and −1.8 ΔΔCp and 7.6 ΔΔCp and −3.6 ΔΔCp and −1.7 ΔΔCp and −2.5 ΔΔCp and −0.7 ΔΔCp and the “Maximum response (ΔΔCp) on day 5, CAMSAP2” value (CAMSAP2) was −2.8 ΔΔCp and −1.9 ΔΔCp and 1.2 ΔΔCp and 3.1 ΔΔCp and 1.6 ΔΔCp and −3.7 ΔΔCp and −4.3 ΔΔCp and −2.5 ΔΔCp and −2.3 ΔΔCp and −3.0 ΔΔCp and −2.9 ΔΔCp and −1.4 ΔΔCp. For the same molecule, the “Maximum response (ΔΔCp) on day 5, CD86” value (CD86) was −1.8 ΔΔCp and 2.2 ΔΔCp and 2.5 ΔΔCp and −2.9 ΔΔCp and −3.0 ΔΔCp and −2.0 ΔΔCp and −3.3 ΔΔCp and 0.8 ΔΔCp and −4.4 ΔΔCp and −2.5 ΔΔCp and −2.8 ΔΔCp and 1.3 ΔΔCp, the “Maximum response (ΔΔCp) on day 5, VCAN” value (VCAN) was 2.2 ΔΔCp and 2.0 ΔΔCp and −0.8 ΔΔCp and −9.1 ΔΔCp and 1.8 ΔΔCp and 3.4 ΔΔCp and −2.2 ΔΔCp and −2.1 ΔΔCp and −4.2 ΔΔCp and −1.2 ΔΔCp and 1.6 ΔΔCp and 1.2 ΔΔCp and the “Maximum response (ΔΔCp) on day 5, GPR65” value (GPR65 [1]) was −1.8 ΔΔCp and −1.4 ΔΔCp and −1.3 ΔΔCp and −3.8 ΔΔCp and 3.1 ΔΔCp and −0.9 ΔΔCp and 2.3 ΔΔCp and −4.8 ΔΔCp and −3.0 ΔΔCp and −2.3 ΔΔCp and 4.4 ΔΔCp and −1.5 ΔΔCp. The “Maximum response (ΔΔCp) on day 5, S100A12” value (S100A12 [2]) was −4.5 ΔΔCp and −1.7 ΔΔCp and 1.7 ΔΔCp and 1.3 ΔΔCp and 2.7 ΔΔCp and −5.0 ΔΔCp and 3.0 ΔΔCp and 0.8 ΔΔCp and 2.4 ΔΔCp and 2.0 ΔΔCp and 2.1 ΔΔCp and 3.9 ΔΔCp and −2.1 ΔΔCp, the “up-regulation of the gene markers (fold)” value [3, 6] was 1.3 to 550 fold and the “up-regulation of the gene markers (ΔΔCp)” value [3, 6] was −0.4 to −9.1 ΔΔCp. The “down-regulation of some of the genes (fold change)” value [3, 7] was 0.6 to 0.05 fold, the “down-regulation of some of the genes (ΔΔCp)” value [3, 7] was 0.8 to 4.4 ΔΔCp and the “GPR65 Day 26 maximum response” value (GPR65 [4]; [8]) was −3.2 ΔΔCp and −4.8 ΔΔCp. For the same molecule, the “GPR65 Day 1 maximum response” value (GPR65 [4]; [9]) was 2.2 ΔΔCp and −1.1 ΔΔCp, the “% Blast variation (peripheral blood)” value (blast cells; individual patients, peripheral blood, variation of blast % between pre- and post-treatment (day 7 to 29), 140 microgram/m2/day oral) was “↓ −32% (peripheral blood) and ↓ −55% (peripheral blood) ^e and =(peripheral blood) and ↓ −55% and =” and the “patients with decrease in blast cells” value (blast cells; [10]) was 6/14. The “patients with morphologic blast differentiation” value (blast cells; [10]) was 5/14, the “S100A12 Day 26 maximum response” value (S100A12 [5]; [8]) was −7.1 ΔΔCp and −2.8 ΔΔCp and the “S100A12 Day 1 maximum response” value (S100A12 [5]; [9]) was −2.1 ΔΔCp and −0.4 ΔΔCp.

Reference: US20190256930A1, “BIOMARKERS FOR DETERMINING RESPONSIVENESS TO LSD1 INHIBITORS” (ORYZON GENOMICS, S.A., priority 2016, published 2019)
